Source: ChEMBL document CHEMBL4196043, “Discovery and optimization of 2-thio-5-amino substituted benzoquinones as potent anticancer agents” (Eur J Med Chem, 2018)
pIC50: −log10 of the molar value.

Experiments:
PC-3 [1] = test: Antiproliferative activity against human PC3 cells after 48 hrs by MTS assay; format: functional, cell-based; conditions: PC-3, 48 h
PC-3 [2] = test: Growth inhibition of human PC3 cells at 10 uM after 48 hrs by MTS assay; format: functional; conditions: PC-3, 48 h, read-out: GI
[3] = Aqueous solubility of the compound in water by HPLC-UV spectrophotometric analysis; format: physicochemical
A549 [4] = test: Growth inhibition of human A549 cells at 10 uM after 48 hrs by MTS assay; format: functional; conditions: A549, 48 h, read-out: GI
BGC-823 = test: Growth inhibition of human BGC823 cells at 10 uM; format: functional; conditions: read-out: GI
MCF7 = test: Antiproliferative activity against human MCF7 cells after 48 hrs by MTS assay; format: functional, cell-based; conditions: MCF7, 48 h
A-375 = test: Antiproliferative activity against human A375 cells after 48 hrs by MTS assay; format: functional, cell-based; conditions: A-375, 48 h
A549 [5] = test: Antiproliferative activity against human A549 cells after 48 hrs by MTS assay; format: functional, cell-based; conditions: A549, 48 h
HCT-116 = test: Antiproliferative activity against human HCT116 cells after 48 hrs by MTS assay; format: functional, cell-based; conditions: HCT-116, 48 h
SW480 = test: Antiproliferative activity against human SW480 cells after 48 hrs by MTS assay; format: functional, cell-based; conditions: SW480, 48 h
[6] = Antiproliferative activity against human HELF after 48 hrs by MTS assay
[7] = Selectivity index, ratio of IC50 for human HELF to IC50 for human PC3 cells; format: toxicity; conditions: HELF cells and PC3 cells, read-out: Ratio IC50

C=CCSC1=CC(=O)C(NCC(O)CO)=CC1=O (stereo not drawn)
pIC50 (PC-3 [1]): 5.40

C=CCSC1=CC(=O)C(NCCS(C)(=O)=O)=CC1=O
pIC50 (PC-3 [1]): 5.81

C=CCSC1=CC(=O)C(NCCCCO)=CC1=O
pIC50 (PC-3 [1]): 6.34

C=CCSC1=CC(=O)C(NCCO)=CC1=O
pIC50 (PC-3 [1]): 6.14

CC(O)CNC1=CC(=O)C(SC/C=C/c2cccnc2)=CC1=O (stereo not drawn)
inhibition of growth at 10 µM (PC-3 [2]): 9.45%

C=CCSC1=CC(=O)C(NCCCN2CCOCC2)=CC1=O
pIC50 (PC-3 [1]): 5.84

C=CCSC1=CC(=O)C(NCCCN)=CC1=O
pIC50 (PC-3 [1]): 5.80

COc1ccccc1/C=C/CSC1=CC(=O)C(NCC(C)O)=CC1=O (stereo not drawn)
inhibition of growth at 10 µM (PC-3 [2]): 5.9%

CC(O)CNC1=CC(=O)C(SC/C=C/c2ccc(F)cc2)=CC1=O (stereo not drawn)
inhibition of growth at 10 µM (PC-3 [2]): 12.2%

C=CCSC1=CC(=O)C(NCCCN(C)C)=CC1=O.Cl
pIC50 (PC-3 [1]): 6.04
solubility [3]: > 200 mg/mL

C=C(Cl)CSC1=CC(=O)C(NCC(C)O)=CC1=O (stereo not drawn)
inhibition of growth at 10 µM (PC-3 [2]): 20%

CC(O)CNC1=CC(=O)C(SC2C=CCCC2)=CC1=O (stereo not drawn)
inhibition of growth at 10 µM (PC-3 [2]): 46.9%

C=CCSC1=CC(=O)C(NCCCNCCO)=CC1=O
pIC50 (PC-3 [1]): 5.66

C=CCSC1=CC(=O)C(NCCCl)=CC1=O
pIC50 (PC-3 [1]): 6.22

C=CCSC1=CC(=O)C(N[C@H]2CC[C@@H](N)CC2)=CC1=O
pIC50 (PC-3 [1]): 6.32

CC(O)CNC1=CC(=O)C(SC/C=C/c2ccccc2)=CC1=O (stereo not drawn)
inhibition of growth at 10 µM (PC-3 [2]): 3.75%

C=CCSC1=CC(=O)C(NCC(C)O)=CC1=O (stereo not drawn)
inhibition of growth at 10 µM (PC-3 [2]): 88%
pIC50 (PC-3 [1]): 5.30
inhibition of growth at 10 µM (A549 [4]): 85.5%
inhibition of growth at 10 µM (BGC-823): 88.5%

C=CCSC1=CC(=O)C(NCCC(=O)OC)=CC1=O
pIC50 (PC-3 [1]): 5.33

C=C(CSC1=CC(=O)C(NCC(C)O)=CC1=O)c1ccccc1 (stereo not drawn)
inhibition of growth at 10 µM (PC-3 [2]): 11.8%

C=CCSC1=CC(=O)C(NCCNC(C)=O)=CC1=O
pIC50 (PC-3 [1]): 5.56

C=CCSC1=CC(=O)C(NCCN2CCNC2=O)=CC1=O
pIC50 (PC-3 [1]): 5.66

C=CCSC1=CC(=O)C(NCCP(=O)(OCC)OCC)=CC1=O
pIC50 (PC-3 [1]): 6.15

C=CCSC1=CC(=O)C(NCCCNC)=CC1=O.Cl
pIC50 (PC-3 [1]): 6.50
solubility [3]: > 200 mg/mL

C=C(C)CSC1=CC(=O)C(NCC(C)O)=CC1=O (stereo not drawn)
inhibition of growth at 10 µM (PC-3 [2]): 61.9%

C/C=C/CSC1=CC(=O)C(NCC(C)O)=CC1=O (stereo not drawn)
inhibition of growth at 10 µM (PC-3 [2]): 67.6%

C=CCSC1=CC(=O)C(N[C@H]2CC[C@H](O)CC2)=CC1=O
pIC50 (PC-3 [1]): 6.48
solubility [3]: < 1 mg/mL

C=CCSC1=CC(=O)C(N[C@H]2CC[C@H](N)CC2)=CC1=O.Cl
pIC50 (PC-3 [1]): 6.65
pIC50 (MCF7): 6.59
pIC50 (A-375): 6.66
pIC50 (A549 [5]): 6.42
pIC50 (HCT-116): 6.39
pIC50 (SW480): 5.91
pIC50 [6]: 4.98
solubility [3]: 23.2 mg/mL
selectivity ratio [7]: 47

C=CCSC1=CC(=O)C(NCCOCCO)=CC1=O
pIC50 (PC-3 [1]): 6.40

C=CCSC1=CC(=O)C(NCCCO)=CC1=O
pIC50 (PC-3 [1]): 6.17
